Experimental data published in ChEMBL document CHEMBL4387773, “Identification of potent, selective and orally bioavailable phenyl ((R)-3-phenylpyrrolidin-3-yl)sulfone analogues as RORγt inverse agonists” (Bioorg Med Chem Lett, 2019).

Legend:
[1] = target: T1, Nuclear receptor subfamily 1 group I member 2 (Homo sapiens, UniProt O75469); assay: Transactivation of PXR (unknown origin) expressed in human HepG2 cells; assay type: cell-based
T1 sequence (O75469 whole entry): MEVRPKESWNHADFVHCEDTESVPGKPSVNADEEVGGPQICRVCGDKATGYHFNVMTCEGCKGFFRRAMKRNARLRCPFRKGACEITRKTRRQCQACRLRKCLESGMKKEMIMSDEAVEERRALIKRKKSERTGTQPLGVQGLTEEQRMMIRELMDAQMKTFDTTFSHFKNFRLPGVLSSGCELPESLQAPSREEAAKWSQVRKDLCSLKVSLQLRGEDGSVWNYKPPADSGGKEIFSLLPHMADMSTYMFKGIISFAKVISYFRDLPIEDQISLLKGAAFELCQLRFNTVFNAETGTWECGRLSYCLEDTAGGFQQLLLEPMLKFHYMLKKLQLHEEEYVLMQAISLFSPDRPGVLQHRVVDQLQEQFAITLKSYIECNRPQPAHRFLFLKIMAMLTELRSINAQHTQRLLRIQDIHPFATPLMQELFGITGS

[2] = target: T2, Oxysterols receptor LXR-alpha (Homo sapiens, UniProt Q13133); assay: Transactivation of human GAL4-fused LXRalpha expressed in African green monkey CV1 cells; assay type: cell-based
T2 sequence (Q13133 whole entry): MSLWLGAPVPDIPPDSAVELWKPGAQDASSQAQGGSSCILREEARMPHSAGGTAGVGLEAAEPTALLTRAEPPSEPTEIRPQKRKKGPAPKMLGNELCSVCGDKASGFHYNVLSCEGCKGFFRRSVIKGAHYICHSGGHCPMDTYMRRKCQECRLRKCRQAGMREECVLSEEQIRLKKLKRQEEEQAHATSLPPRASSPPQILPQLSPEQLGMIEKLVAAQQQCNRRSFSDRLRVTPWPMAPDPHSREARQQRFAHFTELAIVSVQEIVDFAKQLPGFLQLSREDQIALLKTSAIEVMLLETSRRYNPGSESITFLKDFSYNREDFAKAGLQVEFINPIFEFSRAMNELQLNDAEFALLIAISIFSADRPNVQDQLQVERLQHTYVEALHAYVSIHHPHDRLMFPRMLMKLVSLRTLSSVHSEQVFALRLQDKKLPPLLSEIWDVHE

[3] = target: T3, Nuclear receptor ROR-alpha (Homo sapiens, UniProt P35398); assay: Inverse agonist activity at human Gal4-fused RORalpha LBD (272 to 556 residues) expressed in human Jurkat cells measured after 18 hrs by steady-glo luciferase reporter gene assay; assay type: cell-based
T3 sequence (P35398 whole entry): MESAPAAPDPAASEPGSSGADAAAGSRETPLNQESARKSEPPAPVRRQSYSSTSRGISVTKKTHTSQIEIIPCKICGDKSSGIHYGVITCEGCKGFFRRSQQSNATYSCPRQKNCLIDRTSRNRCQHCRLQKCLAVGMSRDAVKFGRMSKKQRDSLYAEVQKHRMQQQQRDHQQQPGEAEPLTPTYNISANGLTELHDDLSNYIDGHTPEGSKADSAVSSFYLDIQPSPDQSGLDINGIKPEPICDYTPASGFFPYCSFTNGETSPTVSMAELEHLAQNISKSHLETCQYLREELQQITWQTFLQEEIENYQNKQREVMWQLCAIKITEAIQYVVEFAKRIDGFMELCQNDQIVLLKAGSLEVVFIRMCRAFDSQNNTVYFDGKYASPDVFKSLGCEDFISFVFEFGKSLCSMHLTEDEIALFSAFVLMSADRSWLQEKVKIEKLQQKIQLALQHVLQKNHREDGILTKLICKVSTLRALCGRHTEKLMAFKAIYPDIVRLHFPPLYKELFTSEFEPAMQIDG

[4] = target: T4, Oxysterols receptor LXR-beta (Homo sapiens, UniProt P55055); assay: Transactivation of human GAL4-fused LXRbeta expressed in African green monkey CV1 cells; assay type: cell-based
T4 sequence (P55055 whole entry): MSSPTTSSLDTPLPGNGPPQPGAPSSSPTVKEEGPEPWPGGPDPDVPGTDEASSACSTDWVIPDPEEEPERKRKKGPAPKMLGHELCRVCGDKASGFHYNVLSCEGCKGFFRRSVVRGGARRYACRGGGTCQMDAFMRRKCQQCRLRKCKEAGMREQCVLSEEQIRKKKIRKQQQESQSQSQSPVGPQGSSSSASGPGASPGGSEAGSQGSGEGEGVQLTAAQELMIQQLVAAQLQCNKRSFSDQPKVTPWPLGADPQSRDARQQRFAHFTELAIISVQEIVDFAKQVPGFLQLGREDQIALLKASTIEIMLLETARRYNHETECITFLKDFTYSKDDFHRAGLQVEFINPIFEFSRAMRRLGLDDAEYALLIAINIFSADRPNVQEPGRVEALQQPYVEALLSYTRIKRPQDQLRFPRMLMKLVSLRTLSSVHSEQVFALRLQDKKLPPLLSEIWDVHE

[5] = Stability in mouse liver microsomes assessed as parent compound remaining after 10 mins; assay type: ADME, Microsome; settings: liver microsomes, read-out: Stability
PXR = target: T5, PXR (Homo sapiens, UniProt O75469); assay: Transactivation of PXR (unknown origin) expressed in human HepG2 cells assessed as maximum receptor activation response relative to control; assay type: cell-based; settings: human HepG2 cells that express PXR, read-out: %max
T5 sequence (O75469 whole entry): T1 sequence (O75469 whole entry)

[6] = target: T6, Nuclear receptor ROR-beta (Homo sapiens, UniProt Q92753); assay: Inverse agonist activity at human Gal4-fused RORbeta LBD (200 to 559 residues) expressed in human Jurkat cells measured after 18 hrs by steady-glo luciferase reporter gene assay; assay type: cell-based
T6 sequence (Q92753 whole entry): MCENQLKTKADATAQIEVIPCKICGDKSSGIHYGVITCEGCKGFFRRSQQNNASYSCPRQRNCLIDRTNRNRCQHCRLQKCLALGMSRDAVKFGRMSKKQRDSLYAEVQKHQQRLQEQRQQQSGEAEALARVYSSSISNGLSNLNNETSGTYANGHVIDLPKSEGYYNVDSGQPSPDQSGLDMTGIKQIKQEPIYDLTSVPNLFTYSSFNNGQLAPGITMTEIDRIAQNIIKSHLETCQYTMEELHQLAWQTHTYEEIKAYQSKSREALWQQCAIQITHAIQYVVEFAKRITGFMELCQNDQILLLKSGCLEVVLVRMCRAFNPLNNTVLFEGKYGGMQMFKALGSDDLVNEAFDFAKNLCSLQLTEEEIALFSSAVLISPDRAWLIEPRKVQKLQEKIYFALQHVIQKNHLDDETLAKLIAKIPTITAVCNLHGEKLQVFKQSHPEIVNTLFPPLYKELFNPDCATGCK

[7] = Stability in human liver microsomes assessed as parent compound remaining after 10 mins; assay type: ADME, Microsome; settings: liver microsomes, read-out: Stability

O=C(N1CC[C@](c2ccc(C(F)(C(F)(F)F)C(F)(F)F)cc2)(S(=O)(=O)c2ccc(F)cc2)C1)C1(F)CCS(=O)(=O)CC1
EC50 [1]: > 50 µM
EC50 [2]: > 7.5 µM
EC50 [3]: > 40 µM
EC50 [4]: > 7.5 µM
remaining at 10 min [5]: 90%
Emax (PXR): 16%
EC50 [6]: > 40 µM
remaining at 10 min [7]: 100%

NC(=O)[C@H]1CC[C@H](C(=O)N2CC[C@](c3ccc(C(F)(C(F)(F)F)C(F)(F)F)cc3)(S(=O)(=O)c3ccc(F)cc3)C2)CC1
EC50 [1]: > 50 µM
EC50 [2]: > 7.5 µM
EC50 [3]: > 40 µM
EC50 [4]: > 7.5 µM
remaining at 10 min [5]: 100%
Emax (PXR): 5%
EC50 [6]: > 40 µM
remaining at 10 min [7]: 100%

O=C(C1CCS(=O)(=O)CC1)N1CC[C@](c2ccc(C(F)(C(F)(F)F)C(F)(F)F)cc2)(S(=O)(=O)c2ccc(F)cc2)C1
EC50 [1]: > 50 µM
EC50 [2]: > 7.5 µM
EC50 [3]: > 40 µM
EC50 [4]: > 7.5 µM
remaining at 10 min [5]: 96%
Emax (PXR): 5%
EC50 [6]: > 40 µM
remaining at 10 min [7]: 93%

O=C([C@H]1CC[C@H](O)CC1)N1CC[C@](c2ccc(C(F)(C(F)(F)F)C(F)(F)F)cc2)(S(=O)(=O)c2ccc(F)cc2)C1
EC50 [1]: > 50 µM
EC50 [2]: > 7.5 µM
EC50 [3]: > 40 µM
EC50 [4]: > 7.5 µM
remaining at 10 min [5]: 58%
Emax (PXR): 13%
EC50 [6]: > 40 µM
remaining at 10 min [7]: 86%

CCC1(C(=O)N2CC[C@](c3ccc(C(F)(C(F)(F)F)C(F)(F)F)cc3)(S(=O)(=O)c3ccc(F)cc3)C2)CCS(=O)(=O)CC1
EC50 [1]: 5.2 µM
EC50 [2]: > 7.5 µM
EC50 [3]: > 40 µM
EC50 [4]: > 7.5 µM
remaining at 10 min [5]: 0%
Emax (PXR): 32%
EC50 [6]: > 40 µM
remaining at 10 min [7]: 3%

O=C(N1CC[C@](c2ccc(C(F)(C(F)(F)F)C(F)(F)F)cc2)(S(=O)(=O)c2ccc(F)cc2)C1)C1(O)CCS(=O)(=O)CC1
EC50 [1]: > 50 µM
EC50 [2]: > 7.5 µM
EC50 [3]: > 40 µM
EC50 [4]: > 7.5 µM
remaining at 10 min [5]: 90%
Emax (PXR): 6%
EC50 [6]: > 40 µM
remaining at 10 min [7]: 100%

O=C(N1CC[C@](c2ccc(C(F)(C(F)(F)F)C(F)(F)F)cc2)(S(=O)(=O)c2ccc(F)cc2)C1)C1(CO)CCS(=O)(=O)CC1
EC50 [1]: > 50 µM
EC50 [2]: > 7.5 µM
EC50 [3]: > 40 µM
EC50 [4]: > 7.5 µM
remaining at 10 min [5]: 31%
Emax (PXR): 8%
EC50 [6]: > 40 µM
remaining at 10 min [7]: 75%

O=C([C@H]1CC[C@H](CO)CC1)N1CC[C@](c2ccc(C(F)(C(F)(F)F)C(F)(F)F)cc2)(S(=O)(=O)c2ccc(F)cc2)C1
EC50 [1]: > 50 µM
EC50 [2]: > 7.5 µM
EC50 [3]: > 40 µM
EC50 [4]: > 7.5 µM
remaining at 10 min [5]: 63%
Emax (PXR): 8%
EC50 [6]: > 40 µM
remaining at 10 min [7]: 75%
